Laboratory results from ChEMBL document CHEMBL1201862, “PubChem BioAssay data set” (2004).
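Cells were grown in 96-well plates and exposed to each compound for 48 hours at five concentrations; endpoints were interpolated linearly between bracketing concentrations, or set to the highest concentration if not reached. GI50 marks 50% less growth.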 Calls of active or inactive are those of the source. No stated cut-off is given here; in the data, active = GI50 up to about 1.1 µM and inactive = higher.

Columns and labels:
Experiment in all cases: DTP human tumour cell line panel, 48 h
A498 = tested on: A498
A549 = tested on: A549
EKVX = tested on: EKVX
HCC 2998 = tested on: HCC 2998
IGROV-1 = tested on: IGROV-1
M14 = tested on: M14
MCF7 = tested on: MCF7
MOLT-4 = tested on: MOLT-4
NCI/ADR-RES = tested on: NCI/ADR-RES
OVCAR-3 = tested on: OVCAR-3
OVCAR-4 = tested on: OVCAR-4
RPMI-8226 = tested on: RPMI-8226
SK-MEL-28 = tested on: SK-MEL-28
SK-MEL-5 = tested on: SK-MEL-5
SW-620 = tested on: SW-620
U-251 = tested on: U-251
RXF 393 = tested on: RXF 393

Row | SMILES | GI50 (A498) | GI50 (A549) | GI50 (EKVX) | GI50 (HCC 2998) | GI50 (IGROV-1) | GI50 (M14) | GI50 (MCF7) | GI50 (MOLT-4) | GI50 (NCI/ADR-RES) | GI50 (OVCAR-3) | GI50 (OVCAR-4) | GI50 (RPMI-8226) | GI50 (SK-MEL-28) | GI50 (SK-MEL-5) | GI50 (SW-620) | GI50 (U-251) | GI50 (RXF 393)
1 | Cc1cc(S(=O)(=O)Nc2nnc3ccccn23)c(S)cc1Cl | 25 µM (inactive) | 37.2 µM (inactive) | > 100 µM (inactive) | > 100 µM (inactive) | > 100 µM (inactive) | > 100 µM (inactive) | > 100 µM (inactive) | 71.6 µM (inactive) | > 100 µM (inactive) | > 100 µM (inactive) | > 100 µM (inactive) | > 100 µM (inactive) | > 100 µM (inactive) | > 100 µM (inactive) | > 100 µM (inactive) | 47.9 µM (inactive) | –
2 | CC(CO)(CO)Nc1ncnc2ccccc12 | > 100 µM (inactive) | > 100 µM (inactive) | 66.8 µM (inactive) | > 100 µM (inactive) | > 100 µM (inactive) | > 100 µM (inactive) | – | > 100 µM (inactive) | > 100 µM (inactive) | > 100 µM (inactive) | > 100 µM (inactive) | – | > 100 µM (inactive) | 50.1 µM (inactive) | > 100 µM (inactive) | > 100 µM (inactive) | > 100 µM (inactive)
3 | Cc1ccc(SC[C@@]2(C(F)F)NC(=O)NC2=O)cc1 | > 100 µM (inactive) | > 100 µM (inactive) | > 100 µM (inactive) | > 100 µM (inactive) | > 100 µM (inactive) | > 100 µM (inactive) | – | > 100 µM (inactive) | > 100 µM (inactive) | > 100 µM (inactive) | > 100 µM (inactive) | > 100 µM (inactive) | > 100 µM (inactive) | > 100 µM (inactive) | > 100 µM (inactive) | > 100 µM (inactive) | > 100 µM (inactive)
4 | COc1cc(C2SCC(=O)N2c2cc(Cl)c(Cl)cc2Cl)cc(OC)c1OC (stereo not given) | 63 µM (inactive) | 38.5 µM (inactive) | 37.3 µM (inactive) | 32.1 µM (inactive) | 62.4 µM (inactive) | 54.2 µM (inactive) | 37.7 µM (inactive) | 23.9 µM (inactive) | 34.4 µM (inactive) | 22.2 µM (inactive) | 38.6 µM (inactive) | 32.4 µM (inactive) | 84.5 µM (inactive) | 25.6 µM (inactive) | 82 µM (inactive) | 77.8 µM (inactive) | –
5 | O=C1CSC(c2ccc(Cl)cc2)N1c1ccc(Oc2ccc(Cl)cc2)c(Cl)c1 (stereo not given) | – | 16.2 µM (inactive) | 13.7 µM (inactive) | 17.2 µM (inactive) | 14.8 µM (inactive) | 16.7 µM (inactive) | 21.9 µM (inactive) | 14.2 µM (inactive) | 17.4 µM (inactive) | 15 µM (inactive) | 14.7 µM (inactive) | 8.95 µM (inactive) | 17.7 µM (inactive) | 17.1 µM (inactive) | 18.3 µM (inactive) | 16.6 µM (inactive) | –
6 | CC1(C)CC(=O)c2c(nc3c(ccc4ccccc43)c2-c2ccc(NC(=O)CCCCCCCCC(=O)Nc3ccc(-c4c5c(nc6c4ccc4ccccc46)CC(C)(C)CC5=O)cc3)cc2)C1 | – | > 100 µM (inactive) | > 100 µM (inactive) | – | 0.017 µM (active) | > 100 µM (inactive) | > 100 µM (inactive) | > 100 µM (inactive) | > 100 µM (inactive) | > 100 µM (inactive) | – | > 100 µM (inactive) | > 100 µM (inactive) | > 100 µM (inactive) | > 100 µM (inactive) | > 100 µM (inactive) | –
7 | c1cc(CSP234N5CCN2CCN3CCN4CC5)ccc1CSP123N4CCN1CCN2CCN3CC4 | – | > 100 µM (inactive) | > 100 µM (inactive) | > 100 µM (inactive) | > 100 µM (inactive) | > 100 µM (inactive) | > 100 µM (inactive) | 91.4 µM (inactive) | > 100 µM (inactive) | 76.4 µM (inactive) | > 100 µM (inactive) | 16.4 µM (inactive) | > 100 µM (inactive) | > 100 µM (inactive) | > 100 µM (inactive) | 68.5 µM (inactive) | –
8 | CCOC(=O)C1(C/C=C\CBr)CCCCCCC1=O (stereo not given) | > 100 µM (inactive) | > 100 µM (inactive) | > 100 µM (inactive) | – | > 100 µM (inactive) | > 100 µM (inactive) | > 100 µM (inactive) | > 100 µM (inactive) | > 100 µM (inactive) | – | > 100 µM (inactive) | – | > 100 µM (inactive) | > 100 µM (inactive) | > 100 µM (inactive) | > 100 µM (inactive) | > 100 µM (inactive)
9 | O=C1N/C(=N/N=C\c2ccccc2)N/C1=C/c1ccc(Cl)cc1 | – | 25.6 µM (inactive) | 19.4 µM (inactive) | 15.9 µM (inactive) | 14.6 µM (inactive) | 37.4 µM (inactive) | 24.7 µM (inactive) | 15.5 µM (inactive) | 23.2 µM (inactive) | 17.4 µM (inactive) | 12.8 µM (inactive) | 20 µM (inactive) | 39 µM (inactive) | 19.3 µM (inactive) | 30.6 µM (inactive) | 22.8 µM (inactive) | 21.2 µM (inactive)
10 | O=C(NN=C1CCCCC1)NN=C1CCCCC1 | – | – | – | – | > 100 µM (inactive) | > 100 µM (inactive) | > 100 µM (inactive) | > 100 µM (inactive) | > 100 µM (inactive) | > 100 µM (inactive) | > 100 µM (inactive) | – | > 100 µM (inactive) | > 100 µM (inactive) | > 100 µM (inactive) | > 100 µM (inactive) | > 100 µM (inactive)
11 | Cc1ccc(C2C(C(=O)C(C)(C)C)N2S(=O)(=O)c2ccc(C)cc2)cc1 (stereo not given) | – | 40.3 µM (inactive) | 15.7 µM (inactive) | 19.1 µM (inactive) | 17.5 µM (inactive) | 17.8 µM (inactive) | 23.8 µM (inactive) | – | 23.4 µM (inactive) | 26.5 µM (inactive) | 30.1 µM (inactive) | 18.9 µM (inactive) | 28.1 µM (inactive) | – | 26.8 µM (inactive) | 20.2 µM (inactive) | 21 µM (inactive)
12 | OCc1cc2c(ccc3sc4ccc5sc6ccc7ncccc7c6c5c4c32)s1 | 23.5 µM (inactive) | 11.4 µM (inactive) | 12.4 µM (inactive) | – | 7.29 µM (inactive) | – | 17.8 µM (inactive) | 11.5 µM (inactive) | 21.7 µM (inactive) | 16.9 µM (inactive) | 25.2 µM (inactive) | 13.6 µM (inactive) | 27.2 µM (inactive) | 4.08 µM (inactive) | 28.2 µM (inactive) | 28.4 µM (inactive) | 11.7 µM (inactive)
13 | CO/C(=N\N=C(/C)C(F)(F)F)c1ccncc1 | 15.5 µM (inactive) | – | – | – | > 100 µM (inactive) | > 100 µM (inactive) | > 100 µM (inactive) | 44.5 µM (inactive) | > 100 µM (inactive) | > 100 µM (inactive) | > 100 µM (inactive) | > 100 µM (inactive) | > 100 µM (inactive) | > 100 µM (inactive) | – | > 100 µM (inactive) | > 100 µM (inactive)
14 | CCOC(=O)c1ccc(/N=c2/[nH]c3ccccc3s/c2=N/c2ccc(C(=O)OCC)cc2)cc1 | 82 µM (inactive) | 95.7 µM (inactive) | > 100 µM (inactive) | > 100 µM (inactive) | > 100 µM (inactive) | – | – | > 100 µM (inactive) | 88.9 µM (inactive) | – | 33.6 µM (inactive) | > 100 µM (inactive) | > 100 µM (inactive) | > 100 µM (inactive) | > 100 µM (inactive) | 39.4 µM (inactive) | > 100 µM (inactive)
15 | O=P1(c2ccccc2)C2=CCC=CC2C(c2ccccc2)N1Cc1ccccc1 (stereo not given) | – | 14.7 µM (inactive) | 14 µM (inactive) | – | 16.1 µM (inactive) | 17.1 µM (inactive) | 11.2 µM (inactive) | 16.1 µM (inactive) | 14.5 µM (inactive) | – | – | 13.3 µM (inactive) | – | 15.2 µM (inactive) | 21 µM (inactive) | 14.3 µM (inactive) | –
16 | Cc1ccc(OCC2OC(n3cnc4nc(N)nc(Cl)c43)CC2Oc2ccc(C)cc2)cc1 (stereo not given) | 28.2 µM (inactive) | 21.3 µM (inactive) | 24.5 µM (inactive) | 15.8 µM (inactive) | 18.5 µM (inactive) | 15.8 µM (inactive) | 15.1 µM (inactive) | 4.51 µM (inactive) | 15.9 µM (inactive) | 18.6 µM (inactive) | 23.2 µM (inactive) | 7.98 µM (inactive) | 36 µM (inactive) | 19.7 µM (inactive) | 32.5 µM (inactive) | 29.6 µM (inactive) | –
17 | CC1(C)C[C@H]2C3=CC[C@@H]4[C@@]5(C)CC[C@H](O)C(C)(C)[C@@H]5CC[C@@]4(C)[C@]3(C)C[C@@H](O)[C@@]23C[C@@H]1OC3=O | > 100 µM (inactive) | 72.9 µM (inactive) | > 100 µM (inactive) | 96.8 µM (inactive) | > 100 µM (inactive) | > 100 µM (inactive) | 59.2 µM (inactive) | 49.2 µM (inactive) | 72.4 µM (inactive) | > 100 µM (inactive) | 37.2 µM (inactive) | 65.5 µM (inactive) | > 100 µM (inactive) | 55.2 µM (inactive) | > 100 µM (inactive) | > 100 µM (inactive) | –
18 | Cc1cc(C)c2c(O)cc(-c3ccc(F)cc3)nc2n1 | 27.4 µM (inactive) | 44.6 µM (inactive) | 48.5 µM (inactive) | 31.3 µM (inactive) | 32.4 µM (inactive) | 45.7 µM (inactive) | 30.7 µM (inactive) | 29.9 µM (inactive) | 47.6 µM (inactive) | – | 17.6 µM (inactive) | 24.8 µM (inactive) | 37.3 µM (inactive) | – | 34.4 µM (inactive) | – | –
